5 molecules from PubChem BioAssay (NCI) can be followed below.

Common to all, as to test: inhibition of tumour cell growth, NCI panel, 48 h
In test [1] the test system is SK-MEL-28 melanoma.
Test [2] deals with SK-MEL-2 melanoma.
In test [3] the test system is CAKI-1 renal.
For test [4], the system named is CCRF-CEM leukemia.
Test [5] relates to SR leukemia.
Test [6] concerns SK-MEL-5 melanoma.
For test [7], the system named is OVCAR-4 ovarian.
In test [8] the test system is NCI/ADR-RES ovarian.
Test [9] has as its system HS 578T breast.
For test [10], the system named is OVCAR-5 ovarian.
In test [11] the test system is TK-10 renal.
For test [12], the system named is NCI-H23 lung.
Test [13] relates to HCC-2998 colon.

The structures appear in SMILES notation.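 Grown in 96-well plates, cells were treated for 48 hours with each compound at five concentrations. Insufficient inhibition: endpoint recorded as highest concentration tested. TGI: concentration producing complete growth inhibition.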 Bounds are passed on as bounds.

For the molecule `CN(C)c1cccc(/C=C(\C#N)c2ccccc2)c1`, the TGI was greater than 100 µM in test [1]; 47.5 µM in [2]; greater than 100 µM in test [3]; greater than 37.3 µM in [4]; greater than 8.15 µM in test [5]; 21 µM in [6]. Moreover, the TGI in test [7] was 98 µM; in test [8], 3.5 µM; in test [9], 2.79 µM; in test [10] it was 64 µM; in test [11], 56.6 µM; in [12] it was 45 µM. Also, the TGI in test [13] turned out to be 7.28 µM.
Take `O=C(/N=C1/OC(CN2CCOCC2)CN1C(=O)Nc1ccccc1)Nc1ccccc1` (stereo not given): the TGI in test [1], in [2], in test [3], in test [4], in test [5] and in test [6] was greater than 100 µM in each case. The TGI in test [7], in [8], in test [9], in test [10], in [11] and in test [12] was greater than 100 µM each time. The molecule further displayed a TGI in [13] greater than 100 µM.
With `CNC(=O)OCc1nc(N=[N+]=[N-])n(C)c1COC(=O)NC`, the TGI in test [1] was greater than 100 µM; in test [2], 80.6 µM; in [3] it was 61 µM; in test [4], greater than 100 µM; in test [5], 86 µM; in test [6], greater than 10 µM. The TGI in test [7], in test [8], in [9], in test [10], in [11] and in test [12] was greater than 100 µM each time. Besides, the TGI in [13] is greater than 100 µM.
As for `N/N=C(/CC(O)(C(F)(F)F)C(F)(F)F)c1ccccc1`, the TGI in test [1], in test [2], in [3], in test [4], in test [5] and in test [6] was greater than 10 µM throughout. Further, the TGI in test [7], in test [8], in [9], in [10], in test [11] and in [12] was greater than 10 µM throughout. Further, the TGI in test [13] was greater than 10 µM.
For `O=C1Nc2ccccc2/C1=N/N1C(=O)/C(=C/c2ccccc2S)N=C1c1ccccc1`, the TGI in [1], in test [2], in [3], in test [4], in test [5] and in [6] was greater than 100 µM throughout. The TGI in [7], in [8], in [9], in [10], in [11] and in [12] was greater than 100 µM each time. Also, the TGI in [13] is greater than 100 µM.
